Here are results for 73 molecules from PubChem BioAssay AID179 (DTP/NCI, 2004).

Activity calls are given as the source filed them.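 The calls were made as follows: active = compounds giving half or more protection of infected cells from virus-caused growth loss, again on retest; inactive = the rest.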

The test concerns CEM cells HIV-1 protection, formazan growth assay. Description: NCI AIDS Antiviral Assay. Particulars: for IC50: measured here: growth of uninfected CEM cells. In a few lines: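 Soluble formazan readout of cell growth; CEM cells ± HIV-1; 5 drug concs. ≥50% protection → retest; ≥50% again = moderately active; reproducible 100% = confirmed active.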

By EC50 is commonly meant the midpoint of the concentration-response curve. For orientation: IC50 means the concentration that inhibits the measured activity by half. A high value points to a need for much substance. On to `CN1C2Cc3cc4c(cc3[C@@]23Cc2ccc5c(c2[C@@H]1O3)OCO5)OCO4` (stereo not given in full), for which the EC50 was more than 200 µM and the IC50 came to 120 µM.

For the molecule `CCC12CC(c3ccccc3)C(C(=O)N1)C(=O)N2` (stereo not given), the EC50 was more than 200 µM and the half-maximal inhibitory concentration (IC50) is more than 200 µM.

Turning to `COP1(=S)OCC2CCC[C@@H]2O1` (stereo not given in full), the outcome was inactive.

Consider `C=CCOc1cc(NC(=S)c2sccc2C)ccc1Cl`, for which the EC50 was 1.45 µM and the IC50 is 14.5 µM.

Turning to `CCOC(=O)/C=C1/Nc2cc(F)c(F)cc2NC1=O`, the EC50 is more than 200 µM and the concentration for half-maximal inhibition (IC50) is more than 200 µM.

Regarding `COc1cc(/C=C/c2ccc(OC)c(OC)c2)cc(OC)c1`, the result was inactive.

Consider `COc1ccc(N2C(=O)CSC2c2c[nH]c3ccccc23)cc1` (stereo not given), for which the EC50 is more than 22.4 µM and the IC50 was more than 22.4 µM.

Regarding `CCCCNC1=C(C(=O)OCC)/C(=N/NC(=O)c2ccccc2O)CO1`, the EC50 is more than 83.2 µM and the IC50 was 13.2 µM.

Regarding `Cn1c2ccccc2n2c3ncccc3c(=O)c(C#N)c12`, the EC50 is more than 50.1 µM and the IC50 stood at 1.26 µM.

For the molecule `CCOc1ccc(Nc2ccc(N=Nc3c(N)c(C)cc(N=Nc4ccc(-c5ccc(N=Nc6ccc(O)c(C(=O)O)c6)cc5)cc4)c3N)cc2S(=O)(=O)O)cc1`, the half-maximal effective concentration (EC50) is 10.7 µM and the IC50 was 79.4 µM.

With `COc1cc2cc3c4c(cc(OC)c(OC)c4c2cc1OC)CCN3C(=O)CCC(=O)O`, the EC50 is more than 200 µM and the half-inhibitory concentration (IC50) is 123 µM.

In the case of `CC1(C)CC(=O)c2c(nc3c(ccc4ccccc43)c2-c2ccc(NC(=O)CCCCC(=O)Nc3ccc(-c4c5c(nc6c4ccc4ccccc46)CC(C)(C)CC5=O)cc3)cc2)C1`, the EC50 was more than 100 µM and the IC50 came to 20 µM.

Consider `O=C(Nc1nc2ncn(CC(COc3ccccc3)OC(=O)c3ccccc3)c2c(=O)[nH]1)c1ccccc1` (stereo not given), for which the EC50 was more than 70.8 µM and the half-inhibitory concentration (IC50) is more than 70.8 µM.

With `CN1C(=O)CN=C(c2ccc[nH]2)c2cc(Cl)ccc21` (tested in a mixture with another compound), the EC50 is 11.2 µM and the IC50 worked out at 79.4 µM.

For the molecule `C=C(Cn1cnc2c(N)ncnc21)C(=O)OCC`, the result was inactive.

Turning to `CC12CCC(=O)C[C@H]1CCC(OC=O)C2Br` (stereo not given in full), the outcome was inactive.

On to `ClCCc1ccccc1CC1=NCCc2ccccc21`, for which the EC50 is more than 200 µM and the IC50 was 36.3 µM.

As to `COc1ccc(O)c2c1C(=O)CCCC2=O`, the result was inactive.

Consider `O=C(CSSCC(=O)OCCS(=O)(=O)Nc1ccc(Br)cc1)OCCS(=O)(=O)Nc1ccc(Br)cc1`, for which the result was inactive.

Regarding `O=C(O)Cc1cccc(=O)c(O)c1C(=O)O`, the EC50 is more than 200 µM and the IC50 was determined as 129 µM.

Take `CC1C(C#N)(C#N)C(C#N)=C(N)C1(Cl)[N+](=O)[O-]` (stereo not given): the EC50 is more than 200 µM and the half-maximal inhibitory concentration (IC50) turned out to be 3.72 µM.

As for `O=C(CC(C(=O)c1cccs1)c1ccsc1)c1ccc(Cl)cc1` (stereo not given), the EC50 is more than 200 µM and the IC50 amounted to 52.5 µM.

For `Cc1c(Cl)cccc1N=NC(=O)NNc1cccc(Cl)c1C`, the EC50 was more than 200 µM and the IC50 stood at 33.1 µM.

With `COc1cccc(C(=O)C2C(=O)N(C)CCc3ccccc32)c1OC` (stereo not given), the EC50 is more than 148 µM and the concentration for half-maximal inhibition (IC50) is more than 148 µM.

In the case of `COc1cccc(/C=N/NC(=O)c2ccccc2[O-])c1[O-].[OH3+].[Pd+2]`, the EC50 is more than 200 µM and the IC50 came to 1.26 µM.

`COc1ccc(C2(O)c3ccccc3C(=O)N(C)C2(O)c2ccc(OC)cc2)cc1` (stereo not given): the EC50 was more than 200 µM and the 50% inhibitory concentration (IC50) came out at 37.2 µM.

Consider `CCOP(=O)(OCC)C(F)(F)Cc1cnc(C)c2c1COC(C)(C)O2`, for which the EC50 is more than 200 µM and the IC50 was more than 200 µM.

Consider `NC(=S)/N=C(/c1nc2ccc(Cl)cc2[nH]c1=O)C(O)c1ccccc1Cl` (stereo not given), for which the EC50 is more than 617 µM and the IC50 is 589 µM.

Regarding `O=C(Nc1ccccc1)OCC1OCOC(COC(=O)Nc2ccccc2)C1OC(=O)Nc1ccccc1` (stereo not given), the EC50 is more than 200 µM and the concentration for half-maximal inhibition (IC50) amounted to 4.47 µM.

Take `C=CC(C1=CC(=O)C(OC)=CC1=O)c1ccc(OC)cc1` (stereo not given): the result was inactive.

On to `O=[N+]([O-])C(=C(Nc1ccccc1)Nc1ccccc1)C(Cl)=C(Cl)Cl`, for which the EC50 is more than 200 µM and the half-inhibitory concentration (IC50) came to 17.4 µM.

With `N#Cc1c(-c2ccc([N+](=O)[O-])cc2)c(C#N)c(=O)n(NS(=O)(=O)c2ccccc2)c1O`, the EC50 was more than 200 µM and the half-maximal inhibitory concentration (IC50) is more than 200 µM.

With `c1ccc(OP2(Oc3ccccc3)=NP(Oc3ccccc3)(Oc3ccccc3)=NP(Oc3ccccc3)(Oc3ccccc3)=NP(Oc3ccccc3)(Oc3ccccc3)=N2)cc1`, the EC50 was more than 100 µM and the half-maximal inhibitory concentration (IC50) is more than 100 µM.

With `O=C(O)/C=C\C(=O)NNC(=O)/C=C\C(=O)O`, the EC50 was more than 1100 µM and the IC50 was more than 1100 µM.

For the molecule `O=c1[nH]cnc2c1CN(c1ccccc1)C2`, the EC50 was more than 234 µM and the IC50 was more than 234 µM.

In the case of `COC(=O)CC1COC(C)(C)O1` (stereo not given), the result was inactive.

For `CC(=O)Nc1ccc(C(=O)NN2C(=O)CSC2c2ccc([N+](=O)[O-])cc2)cc1` (stereo not given), the EC50 is more than 25.1 µM and the IC50 was more than 25.1 µM.

Consider `COC(=O)Nc1cn2nc(C)sc2n1`, for which the EC50 is more than 200 µM and the IC50 was more than 200 µM.

Take `O=C(/C=C/c1ccccc1)CCC1C(=O)NC(=O)NC1=O`: the EC50 was more than 66.1 µM and the IC50 was more than 66.1 µM.

`Cc1ccc(NC(=S)N/N=C(/c2ccccc2)c2ccccn2)cc1`: the EC50 was more than 0.2 µM and the IC50 is 0.105 µM.

For the molecule `CCCCC(C)CCCC1=C(O)/C(=C/C(=O)O)OC1=O` (stereo not given), the EC50 is 174 µM and the IC50 was 447 µM.

Take `COc1ccc(C(Cc2ccccc2)C2NC(=S)NC2=O)cc1` (stereo not given): the EC50 was more than 200 µM and the half-maximal inhibitory concentration (IC50) was found to be 58.9 µM.

Consider `Cc1ccc(/C=C2\CN(C)CC3C2=NN(c2ccccc2)C3c2ccc(C)cc2)cc1` (stereo not given), for which the EC50 is more than 200 µM and the IC50 is more than 200 µM.

Regarding `CC1(CO)CCCC2(C)C1CCC1CC3C=CC12C1C(=O)OC(=O)C31` (stereo not given), the EC50 was more than 200 µM and the half-maximal inhibitory concentration (IC50) is 83.2 µM.

Take `O=C1CN(CCc2ccccc2)CC(=O)N2C(c3ccccc3)CCCN12` (stereo not given): the result was inactive.

Turning to `Cc1[nH]c2ncnc(N)c2c1Cc1ccccc1`, the EC50 was more than 200 µM and the half-maximal inhibitory concentration (IC50) amounted to 2.63 µM.

`O=c1n(CCO)nc2n1CCCN2`: the EC50 was more than 200 µM and the half-maximal inhibitory concentration (IC50) is more than 200 µM.

In the case of `COc1ccc2c(O)c(Cl)c(=O)oc2c1`, the EC50 is more than 200 µM and the IC50 is more than 200 µM.

As for `O=C(/C=C\c1ccc(Cl)cc1Cl)c1cccs1`, the EC50 is more than 200 µM and the half-maximal inhibitory concentration (IC50) was found to be 32.4 µM.

On to `Cc1cc(NS(=O)(=O)c2ccc(Nc3c4ccccc4nc4c(C(=O)Nc5ccc(S(=O)(=O)N=C(N)N)cc5)ccc(Cl)c34)cc2)no1`, for which the EC50 was more than 51.3 µM and the half-maximal inhibitory concentration (IC50) is more than 51.3 µM.

As to `O=C1c2ccccc2-c2nnc3c(c21)Cc1ccccc1C3`, the EC50 is more than 200 µM and the IC50 was more than 200 µM.

In the case of `CC1(C)CCCCCC(C)(CCCO)C1=O` (stereo not given), the EC50 is more than 200 µM and the IC50 was more than 200 µM.

In the case of `O=c1c(-c2c(-c3ccccc3)oc3ccc(Cl)cc3c2=O)c(-c2ccccc2)oc2ccc(Cl)cc12`, the EC50 is more than 200 µM and the IC50 was more than 200 µM.

Take `CCN(CCO)C(=O)C1(c2ccccc2)CCCCC1`: the half-maximal effective concentration (EC50) is more than 501 µM and the IC50 turned out to be 60.3 µM.

In the case of `COc1ccc(Cc2nccc3cc(OC)c(OC)cc23)cc1`, the EC50 was more than 72.4 µM and the IC50 amounted to 69.2 µM.

In the case of `CCOC(=O)CC(=Nc1cc(C)on1)N(CC)CC`, the EC50 is more than 676 µM and the half-inhibitory concentration (IC50) is more than 676 µM.

With `Cc1n[nH]c(=O)n1-n1cccc1`, the EC50 was more than 200 µM and the IC50 was more than 200 µM.

Take `CCOc1ccccc1NC(=O)CCc1nnc2s/c(=C\CCc3ccccc3)c(=O)n12`: the EC50 was more than 79.4 µM and the IC50 is more than 79.4 µM.

In the case of `CC(=O)NC1C(OCc2ccccc2)OC(CO)C(O)C1OC(C)C(=O)NC(C)C(=O)NC(CCC(=O)NCCCCNc1c2ccccc2nc2cccc([N+](=O)[O-])c12)C(N)=O` (stereo not given), the EC50 is more than 200 µM and the concentration for half-maximal inhibition (IC50) is 0.0631 µM.

For the molecule `Cc1ccsc1/C=N/Nc1cc(C)c2ccccc2n1`, the EC50 is more than 200 µM and the IC50 came to 5.37 µM.

Regarding `COC1/C=C\OC2(C)Oc3c(C)c(O)c4c(O)c(c(/C=N\OCCO)c(O)c4c3C2=O)NC(=O)/C(C)=C\C=C/C(C)C(O)C(C)C(O)C(C)C(OC(C)=O)C1C` (stereo not given), the EC50 was 16.2 µM and the concentration for half-maximal inhibition (IC50) worked out at 126 µM.

Turning to `COC(=O)C1C2C=CC(C2)N1S(=O)(=O)c1ccccc1` (stereo not given), the EC50 was more than 200 µM and the IC50 is more than 200 µM.

Consider `O=C(O)CCCCCCCCCCCBr`, for which the half-maximal effective concentration (EC50) was 37.2 µM and the IC50 was determined as 162 µM.

For the molecule `COC(=O)Cc1c(C2=Nc3ccccc3C2(O)CC(=O)OC)[nH]c2ccccc12` (stereo not given), the EC50 is more than 200 µM and the IC50 amounted to 91.2 µM.

For `c1ccc2c(c1)CCN2CCN1CCc2ccccc21`, the EC50 was more than 200 µM and the IC50 worked out at 145 µM.

With `O=Cc1cc(C(=O)OCc2ccccc2)n(S(=O)(=O)c2ccccc2)c1`, the EC50 was more than 200 µM and the IC50 came out at 17.4 µM.

Turning to `CN(C)CC1COC2Cc3ccccc3C1O2` (stereo not given), the EC50 is more than 200 µM and the IC50 was more than 200 µM.

Turning to `O=C(NC1C=Nc2ccc(Cl)cc2NC1=O)c1ccccc1Cl` (stereo not given), the EC50 was more than 200 µM and the IC50 came out at 123 µM.

As to `O=N/C(=C(\c1ccccc1)N1CCOCC1)c1ccccc1`, the outcome was inactive.

As to `c1ccc2c(-c3csc(-c4c[nH]c5ccccc45)n3)c[nH]c2c1`, the EC50 was more than 200 µM and the half-inhibitory concentration (IC50) was 56.2 µM.

Consider `Cc1ccc(/C(O)=C/C(=O)C(=O)NN=C(c2ccccc2)c2ccccc2)cc1`, for which the EC50 was more than 200 µM and the 50% inhibitory concentration (IC50) is 107 µM.

Turning to `NC(N)=NCCCC(NC(=O)OCCCCn1ccc(N)nc1=O)C(=O)O` (stereo not given), the EC50 was more than 200 µM and the IC50 is more than 200 µM.

For the molecule `CCCCCCCCC(C)CCCCCCCCC(=O)OCC(COP(=O)([O-])OCC[N+](C)(C)C)OC(=O)CCCCCCCCC(C)CCCCCCCC` (stereo not given), the outcome was inactive.
